Laboratory results: ChEMBL document CHEMBL4813937, “Jatrophane Diterpenoids from Euphorbia peplus as Multidrug Resistance Modulators with Inhibitory Effects on the ATR-Chk-1 Pathway” (J Nat Prod, 2021)
The source made the active and inactive calls. The calls are words filed in the database; no cut-off is given here.

How the values were obtained:
[1] = Inhibition of ATR/Chk1 pathway in human A549 cells assessed as suppression of […]-induced phosphorylation of Chk1 on serine-345 residue at 20 uM incubated for 12 hrs by Western blotting analysis; type: cell-based
[2] = test system: A549; test: Induction of apoptosis in human A549 cells assessed as increase in PARP cleavage at 25 uM incubated for 48 hrs by Western blotting analysis; type: functional, cell-based

**Q.** For `C=C1[C@H](OC(C)=O)[C@H]2[C@@H](OC(=O)c3ccccc3)[C@](C)(OC(C)=O)C[C@]2(O)C(=O)[C@@H](C)/C=C/C(C)(C)C(=O)[C@H](OC(C)=O)[C@H]1OC(C)=O`, which inhibition [1] is on record?
**A.** The inhibition was “Active”.

**Q.** For `C=C1[C@H](OC(C)=O)[C@@H](OC(C)=O)[C@@H](OC(C)=O)C(C)(C)/C=C/[C@H](C)[C@H](OC(C)=O)[C@@]2(O)C[C@@](C)(OC(C)=O)[C@H](OC(=O)c3ccccc3)[C@@H]2[C@H]1OC(C)=O`, which inhibition [1] is on record?
**A.** Its inhibition is “Active”.

**Q.** For `C=C1[C@H](OC(C)=O)CC(=O)C(C)(C)/C=C/[C@H](C)C(=O)[C@@]2(O)C[C@@](C)(O)[C@H](OC(=O)c3ccccc3)[C@@H]2[C@H]1OC(C)=O`, which inhibition [1] is on record?
**A.** Its inhibition is “Active”.

**Q.** For `C=C1[C@H](OC(C)=O)[C@H]2[C@@H](OC(=O)c3ccccc3)[C@](C)(O)C[C@]2(O)C(=O)[C@@H](C)/C=C/C(C)(C)C(=O)[C@H](OC(C)=O)[C@H]1OC(C)=O`, which inhibition [1] is on record?
**A.** The inhibition was “Active”.

**Q.** Which Activity [2] does the source give for `CC[C@@]1(O)C(=O)OCc2c1cc1n(c2=O)Cc2cc3ccccc3nc2-1` here?
**A.** The Activity was “inactive”.

**Q.** Which inhibition [1] does the source give for `C=C1[C@H](OC(=O)C(C)C)[C@@H](OC(C)=O)[C@@H](OC(C)=O)C(C)(C)/C=C/[C@H](C)[C@H](OC(C)=O)[C@@]2(O)C[C@@](C)(OC(C)=O)[C@H](OC(=O)c3ccccc3)[C@@H]2[C@H]1OC(C)=O` here?
**A.** Its inhibition is “Active”.
